The results in this text go back to ChEMBL document CHEMBL4619809, “Chemically Induced Degradation of WEE1 Kinase for Difficult to Treat Diseases” (ACS Med Chem Lett, 2020).

Chain of Protein cereblon/Wee1-like protein kinase (Homo sapiens) (P30291 whole entry, looked up): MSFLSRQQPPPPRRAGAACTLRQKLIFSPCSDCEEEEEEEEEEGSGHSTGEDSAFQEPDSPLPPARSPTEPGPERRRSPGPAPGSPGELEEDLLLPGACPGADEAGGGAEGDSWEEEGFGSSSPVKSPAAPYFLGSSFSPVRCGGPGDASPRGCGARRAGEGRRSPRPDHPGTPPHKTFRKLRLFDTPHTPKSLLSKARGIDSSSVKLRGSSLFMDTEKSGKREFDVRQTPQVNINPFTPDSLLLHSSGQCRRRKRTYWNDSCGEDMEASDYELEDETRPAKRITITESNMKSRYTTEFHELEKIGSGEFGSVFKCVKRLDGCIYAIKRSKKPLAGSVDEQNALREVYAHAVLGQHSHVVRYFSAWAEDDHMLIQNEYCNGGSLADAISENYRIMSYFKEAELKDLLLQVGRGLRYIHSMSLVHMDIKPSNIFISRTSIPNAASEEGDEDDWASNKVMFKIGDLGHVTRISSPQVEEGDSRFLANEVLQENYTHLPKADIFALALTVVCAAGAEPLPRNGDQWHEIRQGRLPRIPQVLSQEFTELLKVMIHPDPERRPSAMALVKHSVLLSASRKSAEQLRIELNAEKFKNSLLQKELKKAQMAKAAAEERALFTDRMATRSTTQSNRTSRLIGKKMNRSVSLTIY
Chain of Protein cereblon/Wee1-like protein kinase (Homo sapiens) (Q96SW2 whole entry, looked up): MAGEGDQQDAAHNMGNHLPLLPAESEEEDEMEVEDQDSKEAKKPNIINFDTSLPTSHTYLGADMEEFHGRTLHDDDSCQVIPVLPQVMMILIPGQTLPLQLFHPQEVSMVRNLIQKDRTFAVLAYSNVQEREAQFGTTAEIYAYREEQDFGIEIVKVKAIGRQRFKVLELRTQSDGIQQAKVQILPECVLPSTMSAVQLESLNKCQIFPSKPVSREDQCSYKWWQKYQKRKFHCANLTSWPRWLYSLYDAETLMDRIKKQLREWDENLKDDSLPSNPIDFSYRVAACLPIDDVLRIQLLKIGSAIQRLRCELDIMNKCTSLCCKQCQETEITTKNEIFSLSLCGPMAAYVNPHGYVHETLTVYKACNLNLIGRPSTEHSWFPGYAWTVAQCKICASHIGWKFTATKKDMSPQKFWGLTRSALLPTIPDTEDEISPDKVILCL

The experiment addresses Protein cereblon/Wee1-like protein kinase (Homo sapiens) (UniProt P30291+Q96SW2). The experiment in a line: Protac activity at CRBN/WEE1 in human MOLT4 cells assessed as induction of degradation of WEE1 at 1 uM incubated for 6 hrs by immunoblot analysis relative to control. The format is cell-based. As to conditions: MOLT-4.
Turning to `C=CCn1c(=O)c2cnc(Nc3ccc(N4CCN(C(=O)CCOCCNc5cccc6c5C(=O)N(C5CCC(=O)NC5=O)C6=O)CC4)cc3)nc2n1-c1cccc(C(C)(C)O)n1` (stereo not given), the Activity is more than 50%. Consider `C=CCn1c(=O)c2cnc(Nc3ccc(N4CCN(CCCNc5cccc6c5C(=O)N(C5CCC(=O)NC5=O)C6=O)CC4)cc3)nc2n1-c1cccc(OC)n1` (stereo not given), for which the Activity is more than 50%.

On to `C=CCn1c(=O)c2cnc(Nc3ccc(N4CCN(C(=O)CCOCCOCCNc5cccc6c5C(=O)N(C5CCC(=O)NC5=O)C6)CC4)cc3)nc2n1-c1cccc(C(C)(C)O)n1` (stereo not given), for which the Activity was 25 to 50%. As for `C=CCn1c(=O)c2cnc(Nc3ccc(N4CCN(C(=O)CCOCCOCCNc5cccc6c5C(=O)N(C5CCC(=O)NC5=O)C6=O)CC4)cc3)nc2n1-c1cccc(C(C)(C)O)n1` (stereo not given), the Activity is more than 50%.

Turning to `C=CCn1c(=O)c2cnc(Nc3ccc(N4CCN(CCCNc5cccc6c5C(=O)N(C5CCC(=O)NC5=O)C6=O)CC4)cc3)nc2n1-c1cccc(C(C)(C)O)n1` (stereo not given), the Activity was more than 50%. Take `C=CCn1c(=O)c2cnc(Nc3ccc(N4CCN(CCCNC(=O)CCOCCOCCOCCOCCNc5cccc6c5C(=O)N(C5CCC(=O)NC5=O)C6=O)CC4)cc3)nc2n1-c1cccc(C(C)(C)O)n1` (stereo not given): the Activity is more than 50%. Under `C=CCn1c(=O)c2cnc(Nc3ccc(N(C)CCCCNc4cccc5c4C(=O)N(C4CCC(=O)NC4=O)C5=O)cc3)nc2n1-c1cccc(C(C)(C)O)n1` (stereo not given) stands more than 50%; under `C=CCn1c(=O)c2cnc(Nc3ccc(N4CCN(CCCNc5cccc6c5C(=O)N(C5CCC(=O)NC5=O)C6=O)CC4)cc3)nc2n1-c1cccc(C(F)(F)F)n1` (stereo not given), more than 50%.

Regarding `C=CCn1c(=O)c2cnc(Nc3ccc(N4CCN(C(=O)CCOCCOCCOCCN5CCN(Cc6ccc(COc7cccc8c7CN([C@H]7CCC(=O)NC7=O)C8=O)cc6)CC5)CC4)cc3)nc2n1-c1cccc(C(C)(C)O)n1`, the Activity is more than 50%. Turning to `C=CCn1c(=O)c2cnc(Nc3ccc(N4CCN(CCCNC(=O)CCOCCOCCNc5cccc6c5C(=O)N(C5CCC(=O)NC5=O)C6=O)CC4)cc3)nc2n1-c1cccc(C(C)(C)O)n1` (stereo not given), the Activity is more than 50%.
